pEC50, pKi: −log10 of the molar value. ≈ marks a conversion by molar mass, not a printed value. Calls of active or inactive are those of the source. No cut-off for these calls is given here.
Columns and labels:
[1] = Lipophilicity, logD of compound in 1-Octanol/PBS at pH 7.4 by LC-MS/MS method; type: physicochemical
[2] = molecular target: T1, Phosphatidylinositol 4,5-bisphosphate 3-kinase catalytic subunit delta isoform (Homo sapiens) (UniProt O00329); assay: Inhibition of PI3Kdelta in human B-cells assessed as reduction in CD69 expression preincubated for 1 hr followed by IgM stimulation for 18 hrs by flow cytometry analysis; type: cell-based; details: B-cell
T1 sequence (whole entry): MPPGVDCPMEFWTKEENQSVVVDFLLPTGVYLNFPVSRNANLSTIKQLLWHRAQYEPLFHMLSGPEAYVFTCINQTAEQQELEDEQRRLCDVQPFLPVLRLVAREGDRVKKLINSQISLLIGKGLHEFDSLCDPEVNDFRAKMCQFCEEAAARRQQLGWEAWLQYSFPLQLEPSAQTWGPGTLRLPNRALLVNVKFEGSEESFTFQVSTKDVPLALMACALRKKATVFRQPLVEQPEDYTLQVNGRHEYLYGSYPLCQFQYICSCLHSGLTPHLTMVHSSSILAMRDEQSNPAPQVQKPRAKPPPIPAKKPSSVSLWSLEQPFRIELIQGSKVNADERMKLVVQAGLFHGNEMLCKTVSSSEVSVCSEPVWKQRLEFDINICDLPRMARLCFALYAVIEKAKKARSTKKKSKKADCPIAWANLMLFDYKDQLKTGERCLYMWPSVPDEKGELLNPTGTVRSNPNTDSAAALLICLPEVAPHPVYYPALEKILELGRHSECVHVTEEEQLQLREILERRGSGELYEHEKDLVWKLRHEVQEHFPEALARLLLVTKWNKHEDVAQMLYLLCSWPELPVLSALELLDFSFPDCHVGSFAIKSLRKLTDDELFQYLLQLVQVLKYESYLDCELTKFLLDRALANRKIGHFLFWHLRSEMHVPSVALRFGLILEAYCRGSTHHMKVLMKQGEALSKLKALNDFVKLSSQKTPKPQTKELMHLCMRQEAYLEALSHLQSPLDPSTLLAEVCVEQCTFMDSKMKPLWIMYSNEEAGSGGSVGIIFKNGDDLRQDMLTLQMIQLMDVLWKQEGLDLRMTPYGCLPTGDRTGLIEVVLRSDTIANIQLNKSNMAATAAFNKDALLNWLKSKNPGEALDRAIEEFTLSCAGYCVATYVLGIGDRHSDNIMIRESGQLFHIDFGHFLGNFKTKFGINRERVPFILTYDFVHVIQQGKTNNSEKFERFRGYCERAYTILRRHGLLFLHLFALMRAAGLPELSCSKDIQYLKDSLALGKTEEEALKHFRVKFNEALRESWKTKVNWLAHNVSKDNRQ

Homo sapiens [3] = organism: Homo sapiens; assay: Selectivity ratio of Ki for PI3Kdelta (unknown origin) to Ki for PI3Kalpha (unknown origin)
Homo sapiens [4] = organism: Homo sapiens; assay: Selectivity ratio of EC50 for PI3Kalpha H1047R mutant in human HCC1954 cells assessed as reduction in PRAS40 phosphorylation to EC50 for wild type PI3Kalpha in human HDQ-P1 cells assessed as reduction in PRAS40 phosphorylation; type: cell-based
[5] = molecular target: Phosphatidylinositol 4,5-bisphosphate 3-kinase catalytic subunit alpha isoform (Homo sapiens, UniProt P42336, H1047R)
[6] = molecular target: T2, Phosphatidylinositol 4,5-bisphosphate 3-kinase catalytic subunit alpha isoform (Homo sapiens, UniProt P42336); assay: Inhibition of PI3Kalpha (unknown origin) using PIP2:3PS as substrate in presence of ATP measured after 120 mins by ADP-Glo assay
[7] = Apparent permeability across apical to basolateral side in MDCK cells at 10 uM measured upto 180 mins by LC-MS/MS method; type: ADME, cell-based, Canis lupus familiaris; details: dog
[8] = Oral bioavailability in Sprague-Dawley rat plasma at 3 mg/kg measured upto 8 hrs by LC-MS/MS method; type: ADME, organism-based
[9] = Clearance in Sprague-Dawley rat plasma at 1 mg/kg, iv measured upto 8 hrs by LC-MS/MS analysis; type: ADME, organism-based
[10] = tested on: Phosphatidylinositol 4,5-bisphosphate 3-kinase catalytic subunit alpha isoform (Homo sapiens), P42336 [H1047R]; assay: Induction of P110alpha H1047R mutant degradation in human HCC1954 cells at 0.012 to 1 uM after 24 hrs; type: cell-based; details: dose 0.012-1 µM
[11] = Oral bioavailability in Sprague-Dawley rat plasma at 5 mg/kg measured upto 8 hrs by LC-MS/MS method; type: ADME, organism-based
[12] = tested on: Phosphatidylinositol 4,5-bisphosphate 3-kinase catalytic subunit alpha isoform (Homo sapiens), P42336 [H1047R]; assay: Inhibition of PI3Kalpha H1047R mutant in human HCC1954 cells assessed as reduction in PRAS40 phosphorylation after 24 hrs by electrochemiluminescent assay
[13] = Kinetic solubility of the compound at pH 7.4; type: physicochemical; details: buffer, read-out: Kinetic_solubility
[14] = molecular target: T2, Phosphatidylinositol 4,5-bisphosphate 3-kinase catalytic subunit alpha isoform; assay: Inhibition of PI3Kalpha in human HDQ-P1 cells assessed as reduction in PRAS40 phosphorylation after 24 hrs by electrochemiluminescent assay; type: cell-based
Homo sapiens [15] = organism: Homo sapiens; assay: Selectivity ratio of IC90 for inhibition of PI3Kdelta in human B-cells assessed as reduction in CD69 expression to EC50 for inhibition of PI3Kalpha H1047R mutant in human HCC1954 cells; type: cell-based

Phosphatidylinositol 4,5-bisphosphate 3-kinase catalytic subunit alpha isoform (Homo sapiens), P42336 [H1047R], sequence (P42336 whole entry H1047R, canonical isoform): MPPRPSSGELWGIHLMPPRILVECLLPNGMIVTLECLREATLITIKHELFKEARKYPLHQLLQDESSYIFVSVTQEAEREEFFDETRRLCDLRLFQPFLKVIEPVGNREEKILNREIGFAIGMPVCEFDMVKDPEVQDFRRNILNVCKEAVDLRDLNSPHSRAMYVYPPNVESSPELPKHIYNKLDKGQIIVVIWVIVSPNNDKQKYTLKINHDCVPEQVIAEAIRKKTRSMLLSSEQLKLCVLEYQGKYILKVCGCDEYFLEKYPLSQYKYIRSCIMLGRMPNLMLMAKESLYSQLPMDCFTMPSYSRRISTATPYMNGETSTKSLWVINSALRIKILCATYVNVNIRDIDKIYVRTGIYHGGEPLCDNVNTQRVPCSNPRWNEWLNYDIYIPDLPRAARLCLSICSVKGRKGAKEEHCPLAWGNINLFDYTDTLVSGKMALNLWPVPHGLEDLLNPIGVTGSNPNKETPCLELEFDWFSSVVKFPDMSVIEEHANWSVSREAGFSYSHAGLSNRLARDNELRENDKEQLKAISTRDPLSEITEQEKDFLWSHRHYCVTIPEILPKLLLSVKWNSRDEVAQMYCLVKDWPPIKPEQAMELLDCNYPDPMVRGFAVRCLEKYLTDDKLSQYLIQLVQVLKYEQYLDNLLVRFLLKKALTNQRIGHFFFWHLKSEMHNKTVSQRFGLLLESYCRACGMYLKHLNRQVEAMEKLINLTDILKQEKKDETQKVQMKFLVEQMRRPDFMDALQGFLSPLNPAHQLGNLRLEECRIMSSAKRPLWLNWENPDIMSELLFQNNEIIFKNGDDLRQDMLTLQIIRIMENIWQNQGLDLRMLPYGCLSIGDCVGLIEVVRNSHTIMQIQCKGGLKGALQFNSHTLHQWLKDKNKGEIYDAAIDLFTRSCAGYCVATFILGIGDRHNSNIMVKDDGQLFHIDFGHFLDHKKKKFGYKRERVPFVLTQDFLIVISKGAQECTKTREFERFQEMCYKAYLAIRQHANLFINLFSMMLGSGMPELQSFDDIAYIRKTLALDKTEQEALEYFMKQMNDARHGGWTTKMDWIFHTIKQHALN
Phosphatidylinositol 4,5-bisphosphate 3-kinase catalytic subunit alpha isoform (Homo sapiens, UniProt P42336, H1047R), sequence (P42336 whole entry H1047R, canonical isoform): as above
T2 sequence (P42336 whole entry, canonical isoform): as the sequence (P42336 whole entry H1047R, canonical isoform) above, with R1047H counted along it

| SMILES | logD [1] | IC90 [2] [nM] | Ratio Ki (Homo sapiens [3]) | Ratio EC50 (Homo sapiens [4]) | pEC50 [5] | pKi [6] | Papp A→B at 3 h, 10 µM [7] [×10⁻⁶ cm/s] | bioavailability [8] [%] | clearance [9] [mL/min/kg] | Activity [10] | bioavailability [11] [%] | inhibition [12] | solubility kinetic [13] [µM] | pEC50 [14] | Selectivity ratio (Homo sapiens [15]) |
| --- | --- | --- | --- | --- | --- | --- | --- | --- | --- | --- | --- | --- | --- | --- | --- |
| Cc1nc(-c2cn3c(n2)-c2ccc(-c4cnn(C(C)(C)C(N)=O)c4)cc2OCC3)n(C(C)C)n1 [TASELISIB] | 2.3 | 3.1 | – | – | – | – | – | – | – | – | – | – | – | – | – |
| CC(C)n1ncnc1-c1cn2c(n1)-c1ccc(O[C@@H](C)C(N)=O)cc1OCC2 | 1.9 | 147 | – | – | – | – | – | – | – | – | – | – | – | – | – |
| NC(=O)[C@@H](Nc1ccc2c(c1)OCCn1cc(N3C(=O)OC[C@H]3C(F)(F)F)nc1-2)C1CC1 | 1.2 | – | 285 | 1.1 | 7.28 | 10.00 | 1.1 | 98 | 94 | – | – | – | – | – | – |
| NC(=O)[C@@H](Nc1ccc2c(c1)OCCn1cc(N3C(=O)OC[C@H]3C(F)F)nc1-2)C1CC1 | 1.2 | 307 | – | – | 7.55 | – | 3.2 | – | 67 | Active | 41 | – | – | – | – |
| NC(=O)[C@@H]1CCCN1c1ccc2c(c1)OCCn1cc(N3C(=O)OC[C@H]3CF)nc1-2 | 0.8 | – | 46 | – | – | – | 2.6 | – | – | Active | – | Active | 159 (≈ 66.1 µg/mL) | – | – |
| NC(=O)[C@@H]1CCCN1c1ccc2c(c1)OCCn1cc(N3CC[C@H](O)C3=O)nc1-2 | 0.4 | – | 13 | 5.2 | 7.20 | 9.45 | 0.3 | – | 27 | – | 9 | – | 143 (≈ 56.8 µg/mL) | 6.49 | – |
| NC(=O)[C@@H]1CCCN1c1ccc2c(c1)OCCn1cc(N3C(=O)OC[C@H]3C(F)F)nc1-2 | 1.3 | 103 | 34 | – | – | – | 4.3 | – | 41 | Active | 35 | Active | 11 (≈ 4.77 µg/mL) | – | 6.4 |

Source: ChEMBL document CHEMBL5150064 (J Med Chem, 2022)
